Assay results as given in US20120270929A1, “MODULATION OF TTC39 EXPRESSION TO INCREASE HDL” (ISIS Pharmaceuticals, Inc., priority 2009, published 2012).
Oligonucleotides are written 5' to 3', each unit as a sugar letter and its base; * is a phosphorothioate linkage, no mark a phosphodiester; rarer units and linkages stand in square brackets, end groups in braces. Plain capitals give the bases only. e = 2'-O-(2-methoxyethyl) (MOE); [5mC] = 5-methylcytosine; d = 2'-deoxy (DNA)

Experiments:
murine TTC39C mRNA [1] = test: Dose-dependent antisense inhibition of murine TTC39C in mouse primary hepatocytes; format: cell-based; details: electroporation, ~16 h; for IC50: mouse primary hepatocytes
Protocol: Thirty antisense oligonucleotides were selected from the study described in Example 8 and further tested at various doses in mouse primary hepatocytes. Cells were plated at a density of 30,000 cells per well and transfected using electroporation with 500 nM, 1,000 nM, 2,000 nM, 4,000 nM, and 8,000 nM concentrations of antisense oligonucleotide, as specified in Table 30. After a treatment period of approximately 16 hours, RNA was isolated from the cells and TTC39C mRNA levels were measured by quantitative real-time PCR. Murine primer probe set RTS3266 was used to measure mRNA levels. TTC39C mRNA levels were adjusted according to total RNA content, as measured by RIBOGREEN®. Results are presented as percent inhibition of TTC39C, relative to untreated control cells.

murine TTC39C mRNA [2] = test: Antisense inhibition of mouse TTC39C in mouse primary hepatocytes, single dose; format: cell-based; details: 8,000 nM antisense oligonucleotide, electroporation, approximately 24 hours, TTC39C mRNA by real-time PCR (RTS3266), relative to untreated control cells
Protocol: Antisense oligonucleotides were designed targeting a TTC39C nucleic acid and were tested for their effects on TTC39C mRNA in vitro. Cultured mouse primary hepatocytes at a density of 30,000 cells per well were transfected by electroporation with 8,000 nM antisense oligonucleotide. After a treatment period of approximately 24 hours, RNA was isolated from the cells and TTC39C mRNA levels were measured by quantitative real-time PCR. Mouse primer probe set RTS3266 (forward sequence […], designated herein as SEQ ID NO: 140; reverse sequence […], designated herein as SEQ ID NO: 141; probe sequence […], designated herein as SEQ ID NO: 142). TTC39C mRNA levels were adjusted according to total RNA content, as measured by RIBOGREEN®. Results are presented as percent inhibition of TTC39C, relative to untreated control cells.
The chimeric antisense oligonucleotides targeting TTC39C were designed as 5-10-5 MOE gapmers. The gapmers are 20 nucleotides in length, wherein the central gap segment is comprised of ten 2′-deoxynucleotides and is flanked on both sides (in the 5′ and 3′ directions) by wings comprising five nucleotides each. Each nucleotide in the 5′ wing segment and each nucleotide in the 3′ wing segment has a 2′-MOE modification. The internucleoside linkages throughout each gapmer are phosphorothioate (P═S) linkages. All cytosine residues throughout each gapmer are 5-methylcytosines. “Mouse Target start site” indicates the 5′-most nucleotide to which the gapmer is targeted in the mouse gene sequence.

Substance	percent inhibition of TTC39C mRNA (murine TTC39C mRNA [1]; 500.0 nM) [%]	percent inhibition of TTC39C mRNA (murine TTC39C mRNA [1]; 1000.0 nM) [%]	percent inhibition of TTC39C mRNA (murine TTC39C mRNA [1]; 2000.0 nM) [%]	percent inhibition of TTC39C mRNA (murine TTC39C mRNA [1]; 4000.0 nM) [%]	percent inhibition of TTC39C mRNA (murine TTC39C mRNA [1]; 8000.0 nM) [%]	IC50 (murine TTC39C mRNA [1]) [nM]	% inhibition (murine TTC39C mRNA [2]) [%]
ISIS 474596: 5-10-5 MOE gapmer antisense oligonucleotide targeting murine TTC39C (antisense e[5mC]*eG*eA*eT*eT*dA*d[5mC]*dA*d[5mC]*d[5mC]*dA*dG*d[5mC]*d[5mC]*dT*e[5mC]*eT*eT*e[5mC]*eA)	47	65	62	90	96	600	93
ISIS 474598: 5-10-5 MOE gapmer antisense oligonucleotide targeting murine TTC39C (antisense e[5mC]*e[5mC]*e[5mC]*eA*e[5mC]*d[5mC]*dT*dT*dT*dT*dA*dT*dG*dT*dA*eG*eG*e[5mC]*e[5mC]*eG)	40	37	60	83	94	1100	94
ISIS 474599: 5-10-5 MOE gapmer antisense oligonucleotide targeting murine TTC39C (antisense e[5mC]*eG*eT*eT*eG*dA*dT*dG*dT*d[5mC]*d[5mC]*dA*d[5mC]*dA*dT*eA*eG*e[5mC]*eA*e[5mC])	36	59	60	84	92	900	92
ISIS 474600: 5-10-5 MOE gapmer antisense oligonucleotide targeting murine TTC39C (antisense e[5mC]*e[5mC]*eA*eA*eG*dG*dG*d[5mC]*dT*d[5mC]*dT*dT*d[5mC]*d[5mC]*dG*eT*e[5mC]*eA*eG*e[5mC])	47	57	66	86	89	600	90
ISIS 474601: 5-10-5 MOE gapmer antisense oligonucleotide targeting murine TTC39C (antisense eG*eG*e[5mC]*e[5mC]*eA*dT*dA*dT*d[5mC]*d[5mC]*dA*dA*dA*dG*d[5mC]*eT*e[5mC]*eA*e[5mC]*eA)	36	49	65	87	92	1000	91
ISIS 474604: 5-10-5 MOE gapmer antisense oligonucleotide targeting murine TTC39C (antisense eT*eG*eT*e[5mC]*eA*d[5mC]*dT*dG*d[5mC]*d[5mC]*dG*dT*d[5mC]*d[5mC]*dA*eA*eA*eG*e[5mC]*eA)	43	70	84	88	96	500	97
ISIS 474607: 5-10-5 MOE gapmer antisense oligonucleotide targeting murine TTC39C (antisense eT*e[5mC]*eA*eA*eT*d[5mC]*dA*dT*dG*d[5mC]*dT*dG*d[5mC]*dA*d[5mC]*e[5mC]*eA*eG*e[5mC]*e[5mC])	40	65	85	92	94	500	98
ISIS 474609: 5-10-5 MOE gapmer antisense oligonucleotide targeting murine TTC39C (antisense e[5mC]*eG*eT*eA*eG*dT*dA*dG*d[5mC]*dA*d[5mC]*dT*dG*dG*dG*eA*e[5mC]*e[5mC]*eA*e[5mC])	48	56	71	90	97	600	95
ISIS 474610: 5-10-5 MOE gapmer antisense oligonucleotide targeting murine TTC39C (antisense eT*eT*eA*eA*eG*dA*dA*d[5mC]*dA*dA*dG*dT*dT*dG*dT*eG*e[5mC]*e[5mC]*e[5mC]*e[5mC])	10	28	38	65	71	2800	90
ISIS 474613: 5-10-5 MOE gapmer antisense oligonucleotide targeting murine TTC39C (antisense eT*eG*e[5mC]*eT*eT*dT*dA*dA*dT*d[5mC]*d[5mC]*dA*dA*d[5mC]*dG*eA*e[5mC]*eA*eG*eA)	30	33	43	65	74	2100	90
ISIS 474615: 5-10-5 MOE gapmer antisense oligonucleotide targeting murine TTC39C (antisense eG*eT*eA*e[5mC]*eG*dA*dG*dT*dT*dA*d[5mC]*dT*d[5mC]*dT*dG*e[5mC]*e[5mC]*eG*eA*e[5mC])	33	43	82	92	98	900	96
ISIS 474617: 5-10-5 MOE gapmer antisense oligonucleotide targeting murine TTC39C (antisense eA*eG*eT*eT*e[5mC]*d[5mC]*d[5mC]*dT*dT*dA*dG*dG*dG*dA*dG*eG*e[5mC]*e[5mC]*eA*eG)	43	45	80	86	94	800	94
ISIS 474629: 5-10-5 MOE gapmer antisense oligonucleotide targeting murine TTC39C (antisense eG*eA*eT*e[5mC]*eA*d[5mC]*dT*dG*d[5mC]*d[5mC]*dG*dT*d[5mC]*d[5mC]*dA*eA*eA*eG*e[5mC]*eA)	16	28	42	48	66	3600	93
